Test results taken from PMC9137581, “Identification of a Novel Class of Anti-Melanogenic Compounds, (Z)-5-(Substituted benzylidene)-3-phenyl-2-thioxothiazolidin-4-one Derivatives, and Their Reactive Oxygen Species Scavenging Activities” (Antioxidants, 2022).

Experiments:
Format in all cases: cell-based, murine
tyrosinase [1] = assay: Western blot of cytosolic tyrosinase protein; details: 2.5–20 µM, 24 h, cytosolic fraction, B16F10 cells
Protocol: B16F10 cells were treated with five concentrations (0, 2.5, 5, 10, and 20 µM) of analog 2 for 24 h, washed twice with cold PBS, and then harvested. Pellets were then suspended in buffer A [NaBu, β-glycerophosphate, 1 M HEPES, 100 mM MgCl, 500 mM DTT, 100 mM NaF, 10 mM Na-orthovanadate, pepstatin, aprotinin, leupeptin, 1% NP-40, and PMSF], incubated on ice for 20 min, and then centrifuged at 12,000 rpm for 10 min at 4 °C. The supernatants that were obtained contained cytosolic fractions. The pellets were resuspended in buffer B [NaBu, β-glycerophosphate, 1 M HEPES, 5 M NaCl, 10 mM Na-orthovanadate, pepstatin, aprotinin, leupeptin, 100 mM NaF, 100 mM EDTA, and PMSF], incubated on ice for 30 min, and then centrifuged at 12,000 rpm for 20 min at 4 °C. The resultant supernatants contained nuclear fractions.
Protein concentrations were determined using a BCA™ protein assay kit (Pierce, Rockford, IL, USA). Briefly, lysed samples were boiled for 10 min in gel-loading buffer (0.125 M Tris-HCl, pH 6.8, 4% SDS, 10% 2-mercaptoethanol, and 0.2% bromophenol blue) at a volume ratio of 1:1. […] The western blot data were quantified using CS Analyser 3.2 (Densitograph) image analysis software (http://www.attokorea.co.kr, accessed on 4 March 2022).

TRP-2 = assay: qRT-PCR of TRP-2 mRNA; details: versus non-treated controls, B16F10 cells
Protocol: (§1) The total RNAs from the cells were purified using the RiboEx Total RNA solution (GeneAll Biotechnology, Seoul, Korea) and the cDNA was synthesized from the total RNA (2 µg) using SuPrimeScript RT Premix with random hexamer (GeNet Bio, Daejeon, Korea), according to the manufacturers’ instructions. Real-time qPCR was performed using SensiFASTTM SYBR® No-ROX dye (Bioline, London, UK) and a CFX Connect System (Bio-Rad Laboratories, Hercules, CA, USA). The qRT-PCR primers that are specifically for tyrosinase, TRP-1, TRP-2, and β-actin were obtained from Bioneer Inc. (Daejeon, Korea). The relative gene expressions were calculated using the standard curve method and β-actin as the internal control.

tyrosinase [2] = assay: qRT-PCR of tyrosinase mRNA; details: versus non-treated controls, B16F10 cells
Protocol: as §1

TRP-1 = assay: qRT-PCR of TRP-1 mRNA; details: versus non-treated controls, B16F10 cells
Protocol: as §1

O=C1/C(=C/c2ccc(O)c(O)c2)SC(=S)N1c1ccccc1 [Analog 2, (Z)-5-(3,4-Dihydroxybenzylidene)-3-phenyl-2-thioxothiazolidin-4-one]
tyrosinase protein level (tyrosinase [1]): significantly and concentration-dependently reduced | TRP-2 mRNA expression level (TRP-2): significantly and concentration-dependently reduced | tyrosinase mRNA expression level (tyrosinase [2]): significantly and concentration-dependently reduced | TRP-1 mRNA expression level (TRP-1): significantly and concentration-dependently reduced
